Where two headings read alike, the source gives them in different places. Where no end group is shown, it is not given here. [ ]: non-standard residue; d: D form. pY = N[C@@H](Cc1ccc(OP(=O)(O)O)cc1)C(=O)O

As a reminder, the inhibition is the relative decrease from the control value, in per cent. For orientation: IC50 means the midpoint of a concentration-inhibition curve. One may read the melting point as the temperature, or range, at which the solid turns liquid.

In one data set the target is T1, STAT3 (Homo sapiens, UniProt P40763).
T1 construct: a truncated form of STAT3 (136-705) was constructed and chromatographically purified; made in house
T1 sequence (P40763 136-705): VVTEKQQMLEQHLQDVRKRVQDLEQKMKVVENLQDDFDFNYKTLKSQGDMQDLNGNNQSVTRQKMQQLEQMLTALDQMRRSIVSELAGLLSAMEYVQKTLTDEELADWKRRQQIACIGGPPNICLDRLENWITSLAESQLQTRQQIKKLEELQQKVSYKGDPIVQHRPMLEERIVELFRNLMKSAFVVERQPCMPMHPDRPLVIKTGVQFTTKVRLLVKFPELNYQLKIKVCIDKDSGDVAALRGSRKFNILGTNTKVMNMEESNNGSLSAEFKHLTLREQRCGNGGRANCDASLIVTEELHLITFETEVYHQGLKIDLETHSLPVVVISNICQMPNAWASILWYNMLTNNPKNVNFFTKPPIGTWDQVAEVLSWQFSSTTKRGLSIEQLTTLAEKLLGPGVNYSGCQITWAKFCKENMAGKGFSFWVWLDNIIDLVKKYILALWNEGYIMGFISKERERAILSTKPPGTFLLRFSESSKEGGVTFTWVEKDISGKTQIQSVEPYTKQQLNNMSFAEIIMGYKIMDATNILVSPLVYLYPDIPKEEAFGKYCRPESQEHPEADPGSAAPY
The data set can be described thus: AlphaScreen-based competitive binding assay, STAT3 SH2 domain vs FITC-GpYLPQTV. Particulars: for IC50: STAT3 wild-type (WT), read-out: STAT3 inhibition: IC50. The source says: (§1) AlphaScreen is an in vitro competitive binding test used to identify compounds that are able to inhibit the binding of proteins containing an SH2 domain to their corresponding phosphopeptides (5-carboxyfluorescein (FITC)-GpYLPQTV for STAT3 and FITC-GpYDKPHVL for STAT1) (Table 2).
(§2) AlphaScreen is a bead-based non-radioactive assay system for the detection of biomolecular interactions in a microtiter plate format. The binding of biological partners brings donor and acceptor beads into close proximity and, as a result, a fluorescent signal between 520 and 620 nm was produced. The AlphaScreen-based assays were performed in a final reaction volume of 25 μL of the assay buffer containing 10 mM HEPES–NaOH (pH 7.4), 50 mM NaCl, 1 mM EDTA (pH 8.0), 0.1% NP-40, and 10 ng/μL bovine serum albumin (BSA) in a 96-well microtiter plate at 25 °C. The pTyr peptide probes used in this study were 5-carboxyfluorescein (FITC)-GpYLPQTV for STAT3 and (FITC)-GpYDKPHVL for STAT1. Plasmid construction and protein expression were performed as previously described; the experimental method is briefly summarized as follows. Considering that the expression of the full-length protein is troublesome, a truncated form of STAT3 (136-705) was constructed and chromatographically purified (AKTA FPLC system; GE Healthcare Bio-Sciences, Piscataway, NJ, USA). The soluble STAT3 fraction was loaded on a HisTrap™ column (GE Healthcare Bio-Sciences) and eluted with an imidazole gradient (50 mM Tris–HCl pH 7.4, 300 mM NaCl, 0.2 mM EDTA, 0.1% (w/v) NP-40, 5 mM β-mercaptoethanol, 10% (v/v) glycerol, and 10–300 mM imidazole). An SDS-PAGE stained with Coomassie Brilliant Blue (CBB) was performed to check the purity of the protein (see Figure S71). Subsequently, the protein was dialyzed (10 mM HEPES-NaOH pH 7.4, 50 mM NaCl, 10 mM β-mercaptoethanol, 0.1 mM EGTA, 0.02% (w/v) NP-40, 0.2 mM phenylmethylsulphonyl fluoride (PMSF), and 10% (v/v) glycerol).
Firstly, 75 nM of each SH2-containing protein were incubated with the test compound (at the following concentrations: 1, 3, 10, and 30 µM) for 15 min. Each protein sample was then incubated for 90 min with 50 nM of its corresponding FITC-pTyr peptide and simultaneously mixed with streptavidin-coated donor beads and anti-FITC acceptor beads before detection at 570 nm using EnVison Xcite (PerkinElmer, Waltham, MA, USA).
(Alpha assays give light when donor and acceptor beads are brought close together.)

Another data set has as its target T2, STAT1 (Homo sapiens, UniProt P42224).
T2 sequence (P42224 1-750): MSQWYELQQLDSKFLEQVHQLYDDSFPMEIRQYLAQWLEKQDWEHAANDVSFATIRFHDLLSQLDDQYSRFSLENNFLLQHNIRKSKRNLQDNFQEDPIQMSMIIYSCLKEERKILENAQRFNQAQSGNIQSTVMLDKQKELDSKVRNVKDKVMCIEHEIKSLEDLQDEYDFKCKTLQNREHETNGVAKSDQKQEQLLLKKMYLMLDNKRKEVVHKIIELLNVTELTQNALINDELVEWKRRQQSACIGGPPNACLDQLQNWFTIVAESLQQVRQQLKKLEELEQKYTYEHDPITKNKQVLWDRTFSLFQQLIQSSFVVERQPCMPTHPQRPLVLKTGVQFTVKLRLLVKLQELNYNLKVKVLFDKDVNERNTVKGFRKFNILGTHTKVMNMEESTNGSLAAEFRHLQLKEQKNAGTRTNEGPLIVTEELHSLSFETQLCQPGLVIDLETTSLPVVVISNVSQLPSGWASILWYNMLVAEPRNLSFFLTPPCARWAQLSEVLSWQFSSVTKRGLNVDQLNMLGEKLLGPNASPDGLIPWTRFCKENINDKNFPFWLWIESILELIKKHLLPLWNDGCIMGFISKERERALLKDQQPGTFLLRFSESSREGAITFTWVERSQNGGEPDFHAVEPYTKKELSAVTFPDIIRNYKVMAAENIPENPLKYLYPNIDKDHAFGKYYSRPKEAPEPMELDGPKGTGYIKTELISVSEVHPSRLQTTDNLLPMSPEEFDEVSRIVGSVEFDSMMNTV
The data set can be described thus: AlphaScreen-based competitive binding assay, STAT1 vs FITC-GpYDKPHVL. Conditions: read-out: STAT1 inhibition: IC50.
Source text: as §1
as §2, with “The soluble STAT3 fraction was loaded on a HisTrap™ column (GE Healthcare Bio-Sciences) and eluted with an imidazole gradient (50 mM Tris–HCl pH 7.4, 300 mM NaCl, 0.2 mM EDTA, 0.1% (w/v) NP-40, 5 mM β-mercaptoethanol, 10% (v/v) glycerol, and 10–300 mM imidazole). An SDS-PAGE stained with Coomassie Brilliant Blue (CBB) was performed to check the purity of the protein (see Figure S71). Subsequently, the protein was dialyzed (10 mM HEPES-NaOH pH 7.4, 50 mM NaCl, 10 mM β-mercaptoethanol, 0.1 mM EGTA, 0.02% (w/v) NP-40, 0.2 mM phenylmethylsulphonyl fluoride (PMSF), and 10% (v/v) glycerol).” left out

Data set [1] has as its target T3, truncated form of STAT3 (136-705) (UniProt P40763 136-705).
T3 construct: STAT3, residues 136-705; also called STAT3 wild-type; source: plasmid construction and protein expression as previously described [52]; chromatographically purified (HisTrap column, imidazole gradient), dialyzed
The data set can be described thus: AlphaScreen or HTRF; same procedure with STAT3 single-cysteine mutants; compound 1 (0.3-30 µM) premixed with L-Cys in PBS and AlphaScreen buffer, mixed with the STAT3 mutant solution before adding the FITC-peptide. Particulars: both partners purified.

The mark [2] stands for this setting: 30 µM, n.a.: not active, read-out: STAT3 % Inhibition (30 µM).
[3] abbreviates: Table 1, AlphaScreen-based assay at 30 µM, STAT3-SH2 domain, read-out: % Inhibition.

T3 sequence (P40763 136-705): as the sequence (P40763 136-705) above

Regarding `O=S1(=O)Nc2ccccc2N1` [Compound 1a, 1H,3H-2,1,3-Benzothiadiazole-2,2-dioxide], the inhibition at 30 µM at STAT3 (setting [2]) is 16.4 ± 0.8%. In addition, the IC50 at STAT3 was over 30 µM.
Molecule `Cc1ccc2c(c1)NS(=O)(=O)N2` [Compound 1b, 5-Methyl-1H,3H-2,1,3-benzothiadiazole-2,2-dioxide] registered a melting point of 157 °C. The inhibition at 30 µM at STAT3 (setting [2]) was 14.5 ± 0.6%. Moreover, the IC50 on STAT3 was over 30 µM.
The corresponding values for `O=S1(=O)Nc2ccc(C(F)(F)F)cc2N1` [Compound 1c, 5-(Trifluoromethyl)-1H,3H-2,1,3-benzothiadiazole-2,2-dioxide] are 143 °C, 8.2 ± 1.6% and over 30 µM.
For the molecule `O=[N+]([O-])c1ccc2c(c1)NS(=O)(=O)N2` [Compound 1d, 5-Nitro-1H,3H-2,1,3-benzothiadiazole-2,2-dioxide], the inhibition at 30 µM at STAT3 (setting [2]) is 56.9 ± 3.6%. The IC50 on STAT3 came out at 25.1 µM; on STAT1, 15.9 µM.
On to `O=S1(=O)Nc2ccc(Cl)cc2N1` [Compound 1e, 5-Chloro-1H,3H-2,1,3-benzothiadiazole-2,2-dioxide], for which the inhibition at 30 µM at STAT3 (setting [2]) was 28.2 ± 1.4%. On STAT3, the IC50 is over 30 µM.
The corresponding values for `CC(=O)Nc1ccc2c(c1)NS(=O)(=O)N2` [Compound 1f, N-(2,2-Dioxo-1H,3H-2,1,3-benzothiadiazol-5-yl)acetamide] are 18.9 ± 2.3% and over 30 µM.
Turning to `CC(C)CCNC(=O)CCc1ccc2c(c1)NS(=O)(=O)N2` [Compound 1g, 3-(2,2-Dioxo-1H,3H-2,1,3-benzothiadiazol-5-yl)-N-(3-methylbutyl)propanamide], at STAT3 (setting [2]), the inhibition at 30 µM worked out at 11 ± 2.1%. Besides, the IC50 on STAT3 is over 30 µM.
As to `O=C(CCc1ccc2c(c1)NS(=O)(=O)N2)Nc1ccccc1` [Compound 1h, 3-(2,2-Dioxo-1H,3H-2,1,3-benzothiadiazol-5-yl)-N-phenylpropanamide], the melting point fell in the range of 192 to 197 °C.
On to `O=S1(=O)Nc2ccc(-c3ccccc3)cc2N1` [Compound 1i, 5-Phenyl-1H,3H-2,1,3-benzothiadiazole-2,2-dioxide], for which the melting point fell in the range of 180 to 185 °C. Besides, the inhibition at 30 µM at STAT3 (setting [2]) was 6.1 ± 0.9%. For the same molecule, at STAT3, the IC50 is over 30 µM.
The corresponding values for `Cc1cc2c(cc1Br)NS(=O)(=O)N2` [Compound 2a, 5-Bromo-6-methyl-1H,3H-2,1,3-benzothiadiazole-2,2-dioxide] are 185 °C, 25.6 ± 1.2% and over 30 µM.
As for `Cc1ccc2c(c1)N(C)S(=O)(=O)N2C` [Compound 2b, 1,3,5-Trimethyl-2,1,3-benzothiadiazole-2,2-dioxide], on STAT3 (setting [2]), the inhibition at 30 µM stood at 8.9 ± 1.1%. Also, the IC50 on STAT3 was over 30 µM.
`O=S1(=O)N(Cc2ccccc2)c2ccccc2N1Cc1ccccc1` [Compound 3, 1,3-Dibenzyl-2,1,3-benzothiadiazole-2,2-dioxide] showed a melting point of 134 °C.
With `O=C(CN1c2ccccc2NS1(=O)=O)NCCc1ccccc1` [Compound 4, 2-(2,2-Dioxo-3H-2,1,3-benzothiadiazol-1-yl)-N-(2-phenylethyl)acetamide], the melting point turned out to be 172 °C. Besides, on STAT3 (setting [2]), the inhibition at 30 µM was determined as 17.3 ± 1.3%. In addition, the IC50 at STAT3 is over 30 µM.
With `Oc1nc2ccccc2[nH]1` [Compound 5, 2,3-Dihydro-1H-1,3-benzodiazol-2-one], the inhibition at 30 µM on STAT3 (setting [2]) amounted to 3.5 ± 5.6%. The IC50 on STAT3 is over 30 µM.
The corresponding values for `O=S1(=O)Cc2ccccc2C1` [Compound 6] are 11.5 ± 0.8% and over 30 µM.
With `NC1=NS(=O)(=O)Nc2nonc21` [III], at STAT3 (setting [3]), the inhibition at 30 µM came out at 85.4%.
Consider `CCN1C(Cl)=NS(=O)(=O)c2ccccc21` [II], for which the inhibition at 30 µM on STAT3 (setting [3]) amounted to 43.4%.
Same read-out and setting: as for `CN1C(Cl)=NS(=O)(=O)c2ccccc21` [I], the figure is 79%.

B1: 5-carboxyfluorescein (FITC)-GpYLPQTV (peptide)
peptide: G[pY]LPQTV
modifications: not fully specified (N-terminus)
notes: also called pTyr peptide probe for STAT3; phosphotyrosine peptide
As to B1, the binding result in data set [1] was “binds”.

(Values after article PMC7435819, “Towards the Inhibition of Protein–Protein Interactions (PPIs) in STAT3: Insights into a New Class of Benzothiadiazole Derivatives” (Molecules, 2020).)
